# In ChEMBL document CHEMBL5465560, “Selectivity Literature for EUbOPEN Chemogenomic Library” (2024):
# How the values were obtained:
# [1] = target: BMP-2-inducible protein kinase (Homo sapiens) (UniProt Q9NSY1); assay: Selectivity interaction (KinomeScan (DiscoverX)) EUB0000666a BMP2K; settings: at 10 µM
# [2] = target: RAC-alpha serine/threonine-protein kinase (Homo sapiens, UniProt P31749); assay: Selectivity interaction (Upstate Kinase Profiler service (Millipore)) EUB0000056c AKT1; settings: at 1 µM
# RAC-alpha serine/threonine-protein kinase, sequence (P31749 whole entry): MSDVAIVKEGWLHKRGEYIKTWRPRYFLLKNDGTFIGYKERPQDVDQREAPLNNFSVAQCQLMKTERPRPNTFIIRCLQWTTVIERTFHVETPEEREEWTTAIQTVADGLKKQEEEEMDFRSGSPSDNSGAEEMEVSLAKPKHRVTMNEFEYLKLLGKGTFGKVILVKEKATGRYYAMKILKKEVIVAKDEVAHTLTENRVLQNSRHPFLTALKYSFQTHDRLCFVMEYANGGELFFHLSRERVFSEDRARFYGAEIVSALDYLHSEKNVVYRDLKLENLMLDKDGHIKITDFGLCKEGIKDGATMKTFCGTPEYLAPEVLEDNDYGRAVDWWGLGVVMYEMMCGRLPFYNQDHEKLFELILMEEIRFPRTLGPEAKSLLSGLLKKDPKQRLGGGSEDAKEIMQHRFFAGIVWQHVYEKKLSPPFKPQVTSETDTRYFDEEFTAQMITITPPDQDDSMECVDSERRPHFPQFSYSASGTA
# [3] = target: Mitogen-activated protein kinase 3 (Homo sapiens, UniProt P27361); assay: Selectivity interaction (Kinase panel (Invitrogen)) EUB0000639a MAPK3; settings: at 200 nM
# Mitogen-activated protein kinase 3, sequence (P27361 whole entry): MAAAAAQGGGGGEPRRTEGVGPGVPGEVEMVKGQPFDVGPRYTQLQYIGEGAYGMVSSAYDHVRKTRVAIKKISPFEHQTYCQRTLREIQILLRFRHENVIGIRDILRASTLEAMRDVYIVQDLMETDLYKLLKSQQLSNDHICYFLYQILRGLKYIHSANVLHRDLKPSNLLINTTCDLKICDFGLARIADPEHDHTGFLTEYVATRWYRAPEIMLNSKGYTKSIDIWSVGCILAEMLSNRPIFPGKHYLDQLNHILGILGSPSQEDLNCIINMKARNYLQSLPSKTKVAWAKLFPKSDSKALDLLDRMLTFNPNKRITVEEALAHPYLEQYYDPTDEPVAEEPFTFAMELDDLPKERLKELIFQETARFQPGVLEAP
# [4] = target: T1, Serine/threonine-protein kinase 3 (Homo sapiens) (UniProt Q13188); assay: Selectivity interaction (ActivX KiNativ screen (kinase selectivity in THP-1 cell lysates)) EUB0000639a STK3; format: subcellular; settings: lysate, at 1 µM
# T1 sequence (whole entry): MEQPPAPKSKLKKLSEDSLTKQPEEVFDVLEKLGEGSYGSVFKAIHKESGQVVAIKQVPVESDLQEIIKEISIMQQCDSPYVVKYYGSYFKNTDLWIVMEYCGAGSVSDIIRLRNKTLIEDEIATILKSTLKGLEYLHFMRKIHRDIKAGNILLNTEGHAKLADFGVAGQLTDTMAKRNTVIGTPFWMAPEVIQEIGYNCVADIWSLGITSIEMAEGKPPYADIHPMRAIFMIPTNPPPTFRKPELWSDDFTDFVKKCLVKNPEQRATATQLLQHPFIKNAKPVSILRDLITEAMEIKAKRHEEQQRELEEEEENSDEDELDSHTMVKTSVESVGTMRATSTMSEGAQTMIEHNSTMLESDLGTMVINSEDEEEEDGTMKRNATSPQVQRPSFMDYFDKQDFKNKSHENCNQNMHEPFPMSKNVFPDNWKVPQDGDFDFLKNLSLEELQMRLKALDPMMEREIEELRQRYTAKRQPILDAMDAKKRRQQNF
# [5] = target: T2, Serine/threonine-protein kinase 17A (Homo sapiens) (UniProt Q9UEE5); assay: Selectivity interaction (KinomeScan (DiscoverX)) EUB0001049a STK17A; settings: at 1 µM
# T2 sequence (whole entry): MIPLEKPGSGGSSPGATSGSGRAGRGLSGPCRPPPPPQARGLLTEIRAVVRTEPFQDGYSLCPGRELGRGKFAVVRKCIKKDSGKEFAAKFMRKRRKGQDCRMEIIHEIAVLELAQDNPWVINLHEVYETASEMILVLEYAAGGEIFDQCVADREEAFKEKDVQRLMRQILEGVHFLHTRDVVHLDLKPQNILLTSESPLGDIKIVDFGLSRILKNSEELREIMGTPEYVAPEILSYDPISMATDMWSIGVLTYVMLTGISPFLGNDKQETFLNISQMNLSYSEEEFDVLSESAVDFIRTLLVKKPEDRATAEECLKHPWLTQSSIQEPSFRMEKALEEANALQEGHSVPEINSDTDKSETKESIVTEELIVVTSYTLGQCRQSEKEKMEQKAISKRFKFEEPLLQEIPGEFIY
# [6] = target: Tyrosine-protein kinase Fes/Fps (Homo sapiens) (UniProt P07332); assay: Selectivity interaction (KinomeScan (DiscoverX)) EUB0000655a FES; settings: at 10 µM
# Tyrosine-protein kinase Fes/Fps (Homo sapiens), sequence (P07332 whole entry): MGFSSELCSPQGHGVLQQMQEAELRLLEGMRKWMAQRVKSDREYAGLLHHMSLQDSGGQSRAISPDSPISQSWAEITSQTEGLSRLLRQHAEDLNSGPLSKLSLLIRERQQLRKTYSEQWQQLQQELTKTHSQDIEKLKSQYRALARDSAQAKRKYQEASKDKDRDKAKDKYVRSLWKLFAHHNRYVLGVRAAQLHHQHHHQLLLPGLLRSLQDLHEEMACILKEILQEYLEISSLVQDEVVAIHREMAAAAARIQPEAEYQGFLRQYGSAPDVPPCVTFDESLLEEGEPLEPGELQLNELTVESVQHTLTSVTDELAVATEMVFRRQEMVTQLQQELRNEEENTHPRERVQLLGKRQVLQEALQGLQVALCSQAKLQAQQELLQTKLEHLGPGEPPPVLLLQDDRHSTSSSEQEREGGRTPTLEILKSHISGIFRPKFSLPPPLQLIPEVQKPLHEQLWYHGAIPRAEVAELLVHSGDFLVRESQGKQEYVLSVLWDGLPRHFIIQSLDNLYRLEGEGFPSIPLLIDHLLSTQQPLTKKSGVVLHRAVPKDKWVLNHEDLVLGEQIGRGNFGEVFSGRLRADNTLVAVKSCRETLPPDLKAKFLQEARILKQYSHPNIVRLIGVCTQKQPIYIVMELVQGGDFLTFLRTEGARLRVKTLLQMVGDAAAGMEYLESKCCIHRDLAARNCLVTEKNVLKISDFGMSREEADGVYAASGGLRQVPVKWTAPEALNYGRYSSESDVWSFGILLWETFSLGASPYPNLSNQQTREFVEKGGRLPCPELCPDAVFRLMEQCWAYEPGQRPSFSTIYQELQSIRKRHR
# [7] = target: Lethal(3)malignant brain tumor-like protein 1 (Homo sapiens) (UniProt Q9Y468); assay: Selectivity interaction (Transferase panel (protein, RNA, and DNA methyltransferases. and EP300 (acetyltransferase))) EUB0000270b L3MBTL; settings: at 1 µM
# Lethal(3)malignant brain tumor-like protein 1 (Homo sapiens), sequence (Q9Y468 whole entry): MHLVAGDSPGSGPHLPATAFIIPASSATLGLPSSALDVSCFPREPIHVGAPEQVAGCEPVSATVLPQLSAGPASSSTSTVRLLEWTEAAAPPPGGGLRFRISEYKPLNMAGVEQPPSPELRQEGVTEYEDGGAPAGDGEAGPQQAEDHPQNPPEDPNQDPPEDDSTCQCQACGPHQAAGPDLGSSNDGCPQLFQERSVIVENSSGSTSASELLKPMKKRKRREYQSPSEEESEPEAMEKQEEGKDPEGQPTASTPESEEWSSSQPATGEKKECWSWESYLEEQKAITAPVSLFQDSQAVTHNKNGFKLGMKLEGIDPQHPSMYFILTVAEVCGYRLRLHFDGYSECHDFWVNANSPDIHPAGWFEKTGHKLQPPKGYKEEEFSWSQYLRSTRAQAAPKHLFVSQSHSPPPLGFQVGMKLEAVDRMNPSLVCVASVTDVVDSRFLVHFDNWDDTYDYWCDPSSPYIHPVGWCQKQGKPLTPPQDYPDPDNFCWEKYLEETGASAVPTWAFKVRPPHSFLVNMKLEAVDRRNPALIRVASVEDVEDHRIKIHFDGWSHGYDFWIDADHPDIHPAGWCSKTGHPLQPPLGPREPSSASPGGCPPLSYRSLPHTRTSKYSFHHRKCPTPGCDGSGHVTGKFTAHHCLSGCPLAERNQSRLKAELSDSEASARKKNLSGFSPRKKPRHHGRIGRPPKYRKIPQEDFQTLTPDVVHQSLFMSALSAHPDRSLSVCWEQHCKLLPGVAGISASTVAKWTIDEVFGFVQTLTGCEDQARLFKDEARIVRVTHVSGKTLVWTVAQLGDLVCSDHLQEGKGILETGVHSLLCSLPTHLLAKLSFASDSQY
# [8] = target: T3, Mitogen-activated protein kinase 15 (Homo sapiens) (UniProt Q8TD08); assay: Selectivity interaction (KinomeScan (DiscoverX)) EUB0000229b MAPK15; settings: at 10 µM
# T3 sequence (whole entry): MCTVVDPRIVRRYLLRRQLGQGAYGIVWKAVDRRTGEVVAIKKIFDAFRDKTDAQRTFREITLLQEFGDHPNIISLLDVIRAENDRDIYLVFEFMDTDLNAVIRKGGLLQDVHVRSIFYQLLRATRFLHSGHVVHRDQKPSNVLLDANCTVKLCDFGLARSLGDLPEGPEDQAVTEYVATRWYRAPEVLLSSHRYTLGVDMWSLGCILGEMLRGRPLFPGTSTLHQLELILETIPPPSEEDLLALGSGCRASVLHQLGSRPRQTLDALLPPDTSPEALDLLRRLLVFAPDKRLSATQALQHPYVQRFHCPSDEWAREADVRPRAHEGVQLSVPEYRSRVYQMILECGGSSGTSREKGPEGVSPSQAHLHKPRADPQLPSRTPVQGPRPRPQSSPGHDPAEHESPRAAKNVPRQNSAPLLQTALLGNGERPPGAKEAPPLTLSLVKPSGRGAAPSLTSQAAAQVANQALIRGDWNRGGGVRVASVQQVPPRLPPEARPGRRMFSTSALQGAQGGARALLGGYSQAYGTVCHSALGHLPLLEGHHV
# [9] = target: T4, Serine/threonine-protein kinase DCLK3 (Homo sapiens) (UniProt Q9C098); assay: Selectivity interaction (KinomeScan (DiscoverX)) EUB0001619a DCLK3; settings: at 1 µM
# T4 sequence (whole entry): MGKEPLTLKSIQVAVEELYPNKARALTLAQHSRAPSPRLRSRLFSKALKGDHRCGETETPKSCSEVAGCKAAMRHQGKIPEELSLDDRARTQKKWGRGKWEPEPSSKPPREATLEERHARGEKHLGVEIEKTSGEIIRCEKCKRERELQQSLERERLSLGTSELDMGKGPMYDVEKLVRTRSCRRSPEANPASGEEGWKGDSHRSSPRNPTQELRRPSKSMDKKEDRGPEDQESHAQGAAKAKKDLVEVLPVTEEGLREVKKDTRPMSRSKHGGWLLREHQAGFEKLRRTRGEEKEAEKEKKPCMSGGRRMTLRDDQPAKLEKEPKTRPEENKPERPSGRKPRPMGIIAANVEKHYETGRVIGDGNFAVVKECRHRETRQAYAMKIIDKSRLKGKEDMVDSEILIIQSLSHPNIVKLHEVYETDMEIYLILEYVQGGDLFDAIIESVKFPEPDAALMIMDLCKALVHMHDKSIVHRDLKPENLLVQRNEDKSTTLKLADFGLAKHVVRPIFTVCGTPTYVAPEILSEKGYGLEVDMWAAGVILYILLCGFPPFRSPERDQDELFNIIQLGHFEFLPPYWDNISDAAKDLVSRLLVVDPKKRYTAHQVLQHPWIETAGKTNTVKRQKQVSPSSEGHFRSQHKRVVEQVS
# BMP-2-inducible protein kinase (Homo sapiens), sequence (Q9NSY1 whole entry, looked up): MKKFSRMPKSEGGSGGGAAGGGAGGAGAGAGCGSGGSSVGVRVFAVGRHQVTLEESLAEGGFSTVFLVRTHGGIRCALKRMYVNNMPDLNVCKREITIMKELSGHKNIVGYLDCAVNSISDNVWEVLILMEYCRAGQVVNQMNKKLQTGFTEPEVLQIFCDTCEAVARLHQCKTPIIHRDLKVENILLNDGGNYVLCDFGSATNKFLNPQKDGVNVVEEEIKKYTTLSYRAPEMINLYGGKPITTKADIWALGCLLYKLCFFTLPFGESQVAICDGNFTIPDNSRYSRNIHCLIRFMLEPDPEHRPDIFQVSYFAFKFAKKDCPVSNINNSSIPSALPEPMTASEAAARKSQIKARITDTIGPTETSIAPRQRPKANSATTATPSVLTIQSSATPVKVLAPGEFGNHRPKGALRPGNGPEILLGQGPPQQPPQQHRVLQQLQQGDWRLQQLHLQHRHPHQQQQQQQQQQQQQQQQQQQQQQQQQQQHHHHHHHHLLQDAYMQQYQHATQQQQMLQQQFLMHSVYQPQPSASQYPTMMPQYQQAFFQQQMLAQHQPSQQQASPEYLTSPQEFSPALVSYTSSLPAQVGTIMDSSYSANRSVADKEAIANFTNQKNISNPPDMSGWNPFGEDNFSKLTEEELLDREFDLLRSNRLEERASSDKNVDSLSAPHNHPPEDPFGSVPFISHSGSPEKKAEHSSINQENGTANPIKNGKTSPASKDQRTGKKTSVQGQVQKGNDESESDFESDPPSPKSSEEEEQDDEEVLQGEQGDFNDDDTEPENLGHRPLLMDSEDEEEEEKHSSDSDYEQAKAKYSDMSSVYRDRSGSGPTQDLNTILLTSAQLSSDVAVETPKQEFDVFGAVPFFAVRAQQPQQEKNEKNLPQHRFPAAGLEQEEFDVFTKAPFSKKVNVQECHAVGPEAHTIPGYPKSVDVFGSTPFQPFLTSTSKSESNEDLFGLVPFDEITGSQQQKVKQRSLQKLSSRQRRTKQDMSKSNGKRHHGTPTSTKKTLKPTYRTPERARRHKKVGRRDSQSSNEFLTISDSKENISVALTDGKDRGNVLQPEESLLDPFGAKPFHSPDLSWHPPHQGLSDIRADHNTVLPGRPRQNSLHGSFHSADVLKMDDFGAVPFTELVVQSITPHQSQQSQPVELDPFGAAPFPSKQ
structure (smiles),measurement,setting,value
O=C(NOC[C@H](O)CO)c1ccc(F)c(F)c1Nc1ccc(I)cc1F,% of control,[1],91%
Cc1ccc(-c2ccc3c(ccc4sc5c(c43)NC[C@@H](C)NC5=O)n2)cn1,% of inhibition,[2],5%
CC[C@@H]1[C@H](F)C(=O)N[C@@H]1COc1nccc2cc(C(N)=O)c(OC)cc12 [ZIMLOVISERTIB],% of inhibition,[3],4.09%
same,% of inhibition,[4],-8%
COc1cc(Nc2nc(C)cc(-c3cnn4nc(OC)ccc34)n2)cc(C(F)(F)F)c1,% of control,[5],66%
CN(C)CCOc1ccc(-c2nc(-c3ccncc3)c(-c3ccc4c(c3)CC/C4=N\O)[nH]2)cc1,% of control,[6],100%
Cc1cc(CN)cc(C)c1-c1ncn(C)c1-c1cncn1C,% activity,[7],> 90%
COc1cc(N(C)c2ccnc3ccc(C(F)(F)F)cc23)cc(OC)c1OC,% binding,[8],100%
N#Cc1cccc(-c2c[nH]c3ncnc(N4CCOCC4)c23)c1,% of control,[9],100%
